Source: PubChem BioAssay AID179 (DTP/NCI, 2004)
The source made the active and inactive calls.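 How the source made its calls: active means compounds giving half or more protection of infected cells from virus-caused growth loss, again on retest; inactive means the rest.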

Tested on: CEM cells HIV-1 protection, formazan growth assay
Experiment: NCI AIDS Antiviral Assay
Settings: for IC50: measured here: growth of uninfected CEM cells
Summary of the method: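 Protection of CEM cells against HIV-1 was scored from cell growth (soluble formazan) across five concentrations, with parallel uninfected cells. Lack of protection may reflect toxicity.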

Row | Compound | EC50 [µM] | IC50 [µM] | outcome
1 | C[N+]1(Cc2ccc([N+](=O)[O-])cc2)CCC(CCCCCCCC2CC[N+](C)(Cc3ccc([N+](=O)[O-])cc3)CC2)CC1 (centres undefined) | > 200 | 14.5 | –
2 | COC(=O)/C(Cl)=C1/CC1COCc1ccccc1 (centres undefined) | > 186 | 107 | –
3 | CCOC(=O)C1(N)CC1 | > 200 | > 200 | –
4 | c1ccc(CN2CCCCC(Sc3ccccc3)CC2)cc1 (centres undefined) | > 43.7 | 34.7 | –
5 | COc1nc2c(nnn2C2OCC(O)C(O)C2O)c(=O)n1C (centres undefined) | – | – | inactive
6 | Cc1cc(Br)cc(C)c1NC(=O)C(=O)C(C(=O)c1ccc(Cl)c(Cl)c1)C1OC(=O)c2ccccc21 (centres undefined) | > 49 | 6.76 | –
7 | C1CCC(OC2CSC2)OC1 (centres undefined) | > 389 | > 389 | –
8 | O=C1N[C@H](C(=O)O)[C@@H](c2ccc(OCc3ccccc3)cc2)O1 | > 200 | > 200 | –
9 | COc1ccc2[nH]c3c(C)c4ccnc(NCCCN(C)CCCNc5ccc6nnn7c8ccccc8c(=O)c5c67)c4c(C)c3c2c1 | > 0.1 | 0.0316 | –
10 | N=C1N(c2ccccc2)C(=O)CC(=O)N1c1ccccc1 | > 200 | 53.7 | –
11 | O=C(Cc1ccccc1)NCCCN(CCCCN(CCCNC(=O)Cc1ccccc1)C(=O)OCc1ccccc1)C(=O)OCc1ccccc1 | – | – | inactive
12 | NS(=O)(=O)c1ccc(NC(=O)C2C(=O)C(=O)N(c3ccc(S(N)(=O)=O)cc3)C2=O)cc1 (centres undefined) | – | – | inactive
13 | Cc1cc(-c2ccccn2)oc(=O)c1NC(=O)c1ccccc1 | > 200 | 30.2 | –
14 | NCC1CCC(C(=O)O)CC1 (centres undefined) | > 200 | > 200 | –
15 | O=C1c2ccccc2C(=O)C1(Br)C(Cl)c1ccccc1 (centres undefined) | > 200 | 3.55 | –
16 | Cc1cc2c(=O)c3ccc(Cl)cc3[nH]c2c(C(N)=O)c1C | – | – | inactive
17 | COc1ccc(N/C=C2\C(=O)CCc3c2oc2cc(Cl)c(O)c(Cl)c32)cc1 | > 200 | 28.8 | –
18 | C=CCOC(=O)C1CC2OC2CC1C(=O)OCC=C (centres undefined) | > 200 | > 200 | –
19 | CN1Cc2ccccc2[C@H]2C(c3ccccc3)=NN(c3ccccc3)[C@H]21 | > 200 | > 200 | –
20 | CCOC(NC(=O)CC)(C(F)(F)F)C(F)(F)F | – | – | inactive
21 | Cc1nc(-c2nc(C)c(C(=O)NN(C)C)s2)sc1C(=O)NN(C)C | > 70.8 | > 70.8 | –
22 | C=CCC(CCC(CC=C)C(=O)O)C(=O)O (centres undefined) | > 1100 | > 1100 | –

Row | Compound | EC50 [µM] | IC50 [µM] | outcome
23 | C=C1CN(S(=O)(=O)c2ccc(C)cc2)CCCN(CCC)CCCN(S(=O)(=O)c2ccc(C)cc2)C1 | > 200 | 2.95 | –
24 | OCCSCc1cc2c(O)c(c1)Cc1cc(CSCCO)cc(c1O)Cc1cc(CSCCO)cc(c1O)Cc1cc(CSCCO)cc(c1O)C2 | > 24 | 5.01 | –
25 | COC(=O)[C@@H]1COC(C(C)(C)C)N1C(=O)C(c1ccccc1)c1ccccc1 (some centres undefined) | – | – | inactive
26 | Nc1nc(Cl)cc(NCC2(CO)CC(CCCc3ccccc3)C2)n1 (centres undefined) | > 20 | 0.0603 | –
27 | C1CN(/N=N/N2CCOCC2)CCO1 | > 200 | > 200 | –
28 | CN(C)c1nc(N(C)C)nc(N2C(=O)c3ccccc3C2=O)n1 | > 100 | 0.389 | –
29 | Cc1cccc(N2C(=O)C=C(NC(CC(C)C)c3nc4ccccc4[nH]3)C2c2ccccc2)c1 (centres undefined) | > 200 | 17 | –
30 | CC(=O)Nc1cc(Cl)cc2[nH]c(C)nc12 | > 955 | 676 | –
31 | CCOC(=O)Nc1cc2c(c(N)n1)N=C(c1ccc(OC)cc1)CN2 | > 11 | 0.224 | –
32 | O=C(/C=C/c1ccccc1O)c1ccccc1Cl | > 38.9 | > 38.9 | –
33 | COC(=O)C([C@H](NC1(c2ccccc2)c2ccccc2-c2ccccc21)C(=O)OC)N(NC(=O)OCc1ccccc1)C(=O)OCc1ccccc1 (mixture of isomers) | > 200 | 110 | –
34 | N=C1CSC2=NC3=C(CCC/C3=C\c3ccccc3)C(c3ccccc3)N12 (centres undefined) | > 18.6 | > 18.6 | –
35 | C/C(=N/NC(=S)N1CCN(C(=S)N/N=C(/C)c2ccccn2)CC1)c1ccccn1 | > 200 | 3.98 | –
36 | COc1ccc2c(O)c(S(=O)(=O)c3ccc(C)cc3)c(=O)oc2c1OC | > 100 | > 100 | –
37 | CCOc1ccc(N=C2NC(=O)C(CC(=O)Nc3ccccc3[N+](=O)[O-])S2)cc1 (centres undefined) | > 316 | > 316 | –
38 | CC(C)c1cc2c(cc1S(=O)(=O)O)[C@@]1(C)CCC[C@@](C)(C(=O)O)C1CC2 (some centres undefined) | > 200 | > 200 | –
39 | O[C@@]1(C#Cc2ccc3c(c2)OCO3)CCC[C@H]1NCc1ccccc1 | > 200 | 36.3 | –
40 | [Cl][Pt+2][Cl].[NH-]C1CCCC1[NH-] (centres undefined) | > 200 | 49 | –
41 | COc1ccc(C2(C3c4cc(OC)c(OC)cc4CCN3C)SCCCS2)cc1O (centres undefined) | > 200 | 151 | –
42 | N.N.N.N.N.O=[N+]([O-])[O-].[Co+3].[O-][Cl+3]([O-])([O-])[O-] | – | – | inactive
43 | Cc1cccc2c1Oc1ccccc1C2NC(=O)CN(C)C (centres undefined) | > 437 | 83.2 | –
44 | C=C1c2nc3ccccc3n2C=C(c2ccccc2)N1c1ccccc1 | > 200 | 3.98 | –

Row | Compound | EC50 [µM] | IC50 [µM] | outcome
45 | NC(N)=NS(=O)(=O)c1ccc(NCc2c3ccccc3nc3ccccc23)cc1 | > 2 | 0.195 | –
46 | COc1ccc(C2CCC(=O)CC2C(=O)O)cc1 (centres undefined) | > 417 | > 417 | –
47 | O=C1[C@@H]2C(c3ccncc3)=NO[C@@H]2C(=O)N1c1ccc(Cc2ccc(N3C(=O)[C@H]4C(c5ccncc5)=NO[C@H]4C3=O)cc2)cc1 | > 12 | > 12 | –
48 | CCCC(=O)Nc1cc(C)c(NC(=O)CN(CC)CC)c(C)c1 | > 200 | > 200 | –
49 | CC(=O)Nc1c(C#N)c2n(c1C(=O)Nc1ccc(C)cc1)CCC2 | > 100 | > 100 | –
50 | COC([C@@H](OC(=O)c1ccccc1)[C@H](OC(=O)c1ccccc1)C(O)COC(=O)c1ccccc1)n1cc(C)c(=O)[nH]c1=O (some centres undefined) | > 200 | 13.2 | –
51 | Nc1nc(=S)[nH]c(C(=O)Nc2ccc(Cl)c(Cl)c2)c1-c1ccc(Cl)cc1 | > 43.7 | > 43.7 | –
52 | CN1CCOC1(C)c1ccccc1O (centres undefined) | > 200 | > 200 | –
53 | COc1ccc(P2(=S)OC(C)(C)C(C)(C)O2)cc1 | > 200 | > 200 | –
54 | COc1ccc(OC)c(/C=C/c2ccc3ccccc3n2)c1 | > 24.5 | > 24.5 | –
55 | O=c1/c(=C/c2cccc([N+](=O)[O-])c2)sc2nc3ccccc3n12 | – | – | inactive
56 | C#Cc1ccccc1C(=O)OC | > 251 | > 251 | –
57 | O=C(CC(=O)N1N=C(N(c2ccccc2)c2ccccc2)CC1c1ccccc1)Nc1ccccc1 (centres undefined) | – | – | inactive
58 | O=C(Cn1c(=O)oc2ccc(C(=O)c3cccc(Cl)c3)cc21)c1ccccc1 | > 200 | 56.2 | –
59 | CCc1c(O)c(O)c(C(C)=O)c2c(O)c(-c3c(C)cc4c(CC)c(O)c(O)c(C(C)=O)c4c3O)c(C)cc12 | > 69.2 | 2.24 | –
60 | COc1cc2c(oc(=O)c3c4oc([Si](C)(C)C)cc4cc(OC)c23)c2cccc(O)c12 | > 1.74 | > 1.74 | –
61 | CC(=O)N1CC(C)(C)c2c1cc(C)c(O)c2C | > 200 | 132 | –
62 | Cc1cccc(C)c1NC(=O)C(=O)CC(=O)/C=C/c1ccccc1 | > 776 | 389 | –
63 | O=C(Nc1nc2c(=O)[nH]cnc2s1)c1ccccc1 | > 200 | > 200 | –
64 | C/C(=N\NC(=S)NC(C)(C)C)c1ccccn1 | > 200 | 0.0631 | –
65 | Cc1cc(Cl)ccc1NC(=O)CCCC(=O)C1CCC/C1=N\NC(=O)CC#N (centres undefined) | > 64.6 | > 64.6 | –
66 | CCOP(=O)(OCC)C(Cc1ccccc1)N=C(c1ccccc1)c1ccccc1 (centres undefined) | > 200 | 10.7 | –

Row | Compound | EC50 [µM] | IC50 [µM] | outcome
67 | C=CCOCn1cnc2c(N)ncnc21 | – | – | inactive
68 | CCN(CC)CCC(=O)c1ccc(OC)cc1 | > 912 | 19.5 | –
69 | CCOC(=O)C1CCCc2sc(N)c(C#N)c21 (centres undefined) | > 200 | > 200 | –
70 | O=C(/C=C/c1ccccc1)c1ccc(Cl)s1 | > 200 | 12.3 | –
71 | COc1ccc(-c2c(O)c3ccc(OC)cc3oc2=O)cc1 | > 200 | 155 | –
72 | CC(C)C(/C=C/c1ccc(Cl)cc1)=N\NC(=O)N/N=C(/C=C/c1ccc(Cl)cc1)C(C)C | > 100 | > 100 | –
73 | Cc1ccc(S(=O)(=O)N/N=C2\CC3C4CCC3C2C4)cc1 (centres undefined) | > 200 | > 200 | –
74 | COc1cc2c(cc1O)[C@@]1(Cc3ccc(OC)c(OC)c3)CCC(=O)N1CC2 | – | – | inactive
75 | C/C(=C1/N=C(c2cc([N+](=O)[O-])ccc2Cl)N(c2ccc(Br)cc2)C1=O)c1ccc(N(CCC#N)CCC#N)cc1C | > 11.5 | > 11.5 | –
76 | c1ccc([P+](CC[P+](c2ccccc2)(c2ccccc2)c2ccccc2)(c2ccccc2)c2ccccc2)cc1 | > 200 | 6.17 | –
77 | C[N+]1(CCCl)CCc2cccc([N+](=O)[O-])c2C1 (centres undefined) | > 200 | 97.7 | –
78 | C=C1C2CCCC1C1(S(C)(=O)=O)CCCCC21O (centres undefined) | – | – | inactive
79 | CC(=O)N(CCc1ccccc1)C(C)(C#N)c1ccccc1 (centres undefined) | > 200 | > 200 | –
80 | O=C(Nc1ccc(F)cc1)C(=O)C(C(=O)c1ccccc1F)C1OC(=O)c2ccccc21 (centres undefined) | > 302 | 18.2 | –
81 | O=C(Nc1ccc(Br)cc1)c1cc(Br)ccc1O | > 200 | 4.37 | –
82 | COc1cc2c(c(OC3OC(CO)C(O)C(O)C3O)c1)C(=O)CC(c1ccc(O)cc1)O2 (centres undefined) | > 200 | 195 | –
83 | O=NNc1ccc(S(=O)(=O)c2ccc3ccccc3c2)cn1 | > 200 | 112 | –
84 | NC(=S)Nc1[nH]c(=S)nc2c1SC1=N/C(=C\c3ccco3)C(=O)N12 | > 200 | 81.3 | –
85 | Cn1c2c(c3ccccc31)CCN(CCCN1CCN(c3cccc(Cl)c3)CC1)C2=O | > 16.6 | > 16.6 | –
86 | N#CC(C#N)=CNC(=S)Nc1ccc(Cl)c(Cl)c1 | > 200 | 15.1 | –
87 | CCC(=N\NC(N)=S)/C(C)=N/O | > 200 | > 200 | –
88 | CCCCCCOc1ccc(C(=O)NOCc2ccccc2)cc1 | > 200 | 66.1 | –
